Experimental data as given in patent US12558327B2, “Methods and compositions for treating sleep apnea” (The Brigham and Women's Hospital, Inc., priority 2019, dated 2026).
Where “and” joins values, the source holds several entries; their conditions need not be identical. Equal entries are not always repeated. Entries after “also recorded” stand apart in the source; their conditions may differ. Where two headings read alike, the source gives them in different places.

How the values were obtained:
[1] = tested on: patients with mild OSA; details: 15 patients with mild OSA; cited from earlier work
[2] = tested on: OSA patients; details: for NREM (atomoxetine) and REM (oxybutynin) specific AHI / effect on ventilation during sleep / oxygen saturation / oxygen levels compared to placebo: each drug administered alone; for OSA severity (apnea hypopnea index, AHI): nine moderate-to-severe OSA patients, REM and NREM sleep
From the text: In a preliminary investigation, nine patients equipped with a pneumotachograph attached to an oronasal mask to measure ventilation and an esophageal catheter to estimate the arousal threshold, performed a sleep study on each of these 4 conditions: placebo, atomoxetine alone, oxybutynin alone and ato-oxy.

[3] = tested on: patients with OSA; details: drug taken alone, cited from earlier work
[4] = tested on: OSA patients; normal controls; details: cited from earlier work
[5] = in vivo; cited from earlier work
[6] = tested on: OSA patients; test: Atomoxetine plus pimavanserin sleep study in 5 OSA patients (Example 4); type: in vivo, human; details: inferred from combination effect and atomoxetine-alone reduction
Description: We administered the recently-approved selective 5-HT2A inverse agonist pimavanserin 34 mg to block the EEG arousal response to CO2 in association with atomoxetine 80 mg and measured the effect of this combination on OSA severity, arousal threshold and collapsibility in 5 patients. These doses were chosen as they are the usual effective doses for attention-deficit disorder and delusion-hallucinations in patients with Parkinson's disease, respectively, based on prescribing information. Patients were also instrumented with an oronasal mask, and in 4/5 patients, esophageal catheter and genioglossus intramuscular electrodes. […] The effect on the arousal threshold is noteworthy, because pimavenserin was administered together with atomoxetine, a wake-promoting drug that, as described above, caused a reduction in arousal threshold by ˜18% compared to placebo in OSA patients in a previous trial. This means that pimavanserin could actually increase the respiratory arousal threshold by ˜50%.

[7] = tested on: OSA patients; details: cited from earlier work
[8] = tested on: OSA subjects; test: Tiagabine in 14 OSA subjects; type: in vivo, human
From the text: As described herein, drugs that increase sleep depth (and slow wave sleep (SWS) in particular) such as tiagabine or gabapentin could help the resolution of OSA. […] The pharmacological increase in slow wave sleep (SWS) could be an ideal mechanism for raising the arousal threshold to treat OSA, particularly since SWS seems to be a “protective state” against OSA. […] The reason for improvement likely relates to changes in the non-anatomical factors that contribute to OSA during SWS such as reduced arousability, thereby enabling a higher activation of upper airway dilator muscles. […] Thus, as described herein, drugs such as gabapentin that cause 20-60% increase of SWS^20,21, are ideal candidates for the treatment of OSA in association with atomoxetine.

[9] = tested on: OSA patients; details: cited from earlier work; remark: listed apart in the source
[10] = tested on: subjects with and without OSA; details: cited from earlier work
[11] = tested on: OSA patients; details: zopiclone 7.5 mg, 1 night, n=12; cited from earlier work
[12] = tested on: OSA patients; details: zopiclone n=14 vs placebo n=16; 30 days; non-significant; cited from earlier work
[13] = protriptyline 20 mg, 4 weeks, 5 obese men with severe OSA (Brownell)
[14] = seven patients with a low arousal threshold (Eckert)
[15] = zopiclone 7.5 mg, 21 healthy individuals and OSA patients

CNCC[C@@H](Oc1ccccc1C)c1ccccc1 [atomoxetine]
AHI [1]: did not improve | daytime sleepiness [1]: significantly improve | share of the improvement in ventilation during sleep accounted for ([2]; analysis of ventilatory parameters during all night): at least 70% | NREM (atomoxetine) and REM (oxybutynin) specific AHI [2]: did not respectively improve | effect on ventilation during sleep [2]: responsible for most of the ventilatory improvement | oxygen saturation / oxygen levels compared to placebo [2]: improved oxygen saturation | reduction in arousal threshold vs placebo ([2]; nine OSA patients, atomoxetine p=0.03, combination p>0.7): 18% | OSA severity (apnea hypopnea index, AHI) [2]: did not improve OSA severity | OSA severity (apnea hypopnea index, AHI) ([2]; listed as Atomoxetine): did not systematically reduce OSA severity | success in reducing OSA severity / the AHI [3]: modest success; also recorded: without success

CNCCCN1c2ccccc2CCc2ccccc21 [desipramine]
airway collapsibility compared to placebo ([4]; 1 night, 14 OSA patients): less collapsible airway | effect on OSA severity as a group ([4]; 1 night, 14 patients): not significant | genioglossus activity during sleep ([4]; normal controls): increased genioglossus activity | upper airway collapsibility during sleep ([4]; normal controls): reduced upper airway collapsibility | success in reducing OSA severity / the AHI [3]: modest success; also recorded: without success

NCC1(CC(=O)O)CCCCC1 [gabapentin]
increase of SWS (slow wave sleep) [5]: 20-60%

CCN(CC)CC#CCOC(=O)C(O)(c1ccccc1)C1CCCCC1 (stereo not drawn) [oxybutynin]
NREM (atomoxetine) and REM (oxybutynin) specific AHI [2]: did not respectively improve | effect on ventilation during sleep [2]: minor effect on ventilation | oxygen saturation / oxygen levels compared to placebo [2]: did not improve oxygen levels | OSA severity (apnea hypopnea index, AHI) [2]: did not systematically reduce OSA severity

CC(C)COc1ccc(CNC(=O)N(Cc2ccc(F)cc2)C2CCN(C)CC2)cc1 [pimavanserin]
increase of respiratory arousal threshold ascribed to pimavanserin [6]: ~50%

CNCCCC1c2ccccc2C=Cc2ccccc21 [protriptyline]
success in reducing OSA severity / the AHI ([3]; listed as Protriptyline): without success | success in reducing OSA severity / the AHI [3]: modest success | reduction in AHI from baseline ([7]; open label 4-week crossover trial, 9 patients (Hanzel)): 42% | AHI during NREM sleep [7, 13]: no change | oxygen saturation and daytime sleepiness [7, 13]: improvements | NREM AHI as a group ([7]; protriptyline 20 mg, 14 days, 10 moderate-to-severe OSA patients (Whyte)): did not change

Cc1ccsc1C(=CCCN1CCC[C@@H](C(=O)O)C1)c1sccc1C [tiagabine]
AHI or oxygen saturation during sleep [8]: without worsening | increase in EEG slow wave activity [8]: 16%

O=c1n(CCCN2CCN(c3cccc(Cl)c3)CC2)nc2ccccn12 [trazodone]
AHI compared to placebo [9, 14]: did not affect | improvement of arousal threshold [9, 14]: 30% | arousal threshold in response to hypercapnia ([9]; trazodone 100 mg before bedtime, eight OSA patients (Heinzer)): increased | reduction of AHI ([9]; trazodone 100 mg, 15 unselected OSA patients (Smales)): 26%

Cc1ccc(-c2nc3ccc(C)cn3c2CC(=O)N(C)C)cc1 [zolpidem]
increase in arousal threshold compared to placebo ([10]; 21 subjects with and without OSA, zolpidem 10 mg): ~30% and 25% | increase in median genioglossus muscle responsiveness compared to placebo ([10]; 21 subjects, p=0.03): 3 fold | genioglossus response to pharyngeal negative pressure compared to placebo ([10]; zolpidem 10 mg, 21 individuals): increased

CN1CCN(C(=O)OC2c3nccnc3C(=O)N2c2ccc(Cl)cn2)CC1 (stereo not drawn) [zopiclone]
AHI compared to placebo [11]: did not significantly change | increase in arousal threshold [11]: 20% | change in AHI from baseline [12]: −25% | change in AHI from placebo [12]: −15% | AHI vs placebo [10, 15]: did not change | arousal threshold vs placebo [10, 15]: significantly increased
